Reference: US4532258A, “Certain cyclopropane carboxylic acid esters and their pesticidal use” (priority 1979, dated 1985)
Converted amounts (≈) assume the structure as drawn.

Tests used:
[1] = Light stability test (residue after exposure to ultraviolet light); format: physicochemical; conditions: UV 3600 Å, 31°-35° C.
Description: Into 2.0 ml of acetone were dissolved 80 mg of each test compound. A 5 μl portion of the solution was taken and spread on a glass plate (Micro Standard Cover Glass, 18 m/m No. 1, 200 pcs, Matsunami Glass Ind., Ltd.) and the acetone was evaporated. The specimen was exposed to ultraviolet light from a fluorescent lamp (Tokyo Shibaura Electric Co., Ltd., FL20BL, glow-type, 100 V, 24.5 W, wavelength=3600 Å) which was fixed just above the specimen at a distance of 11 cm at a temperature of 31°-35° C. for a predetermined exposure time. The test liquid was washed away with 1.0 ml of methanol containing 0.04% of dioctyl phthalate as an internal reference and high-speed liquid chromatography was carried out on the washings to determine the residual amount of the test compound.

[2] = Fish toxicity test; format: in vivo; conditions: guppy, water, female guppies, 20° C., 50% killed, read-out: TLm (medium tolerance limit)
Description: The mixture was stirred well to prepare a test water. Ten female guppies from 3 to 4 months of age were released into the test water and maintained at 20° C. The concentration of the test compound at which 50% of the guppies were killed during the ensuring 48 hours was determined. [This concentration is referred to as TLm (medium tolerance limit, ppm)].

Q: For `C=CCC1=C(C)C(OC(=O)C2C(C=C(C)C)C2(C)C)CC1=O` (stereo not drawn) [Allethrin, reference compound], which “Residue (%)” value ([1]; exposure time 3.5 hrs.) is on record?
A: The value was 14%.

Q: And the “Residue (%)” value ([1]; exposure time 3 days)?
A: Its value is 0%.

Q: For `C#CC(OC(=O)[C@@H]1[C@@H](CC(Cl)(Cl)Cl)C1(C)C)c1cccc(Oc2ccccc2)c1` (relative stereo) [(11) [Trans-isomer]], which LC50 at 48 h [2] is on record?
A: Its LC50 at 48 h is no less than 10 µg/mL.

Q: For `C#CC(OC(=O)[C@@H]1[C@H](CC(C)(Cl)Cl)C1(C)C)c1cccc(Oc2ccccc2)c1` (relative stereo) [(13) [Cis-isomer]], which LC50 at 48 h [2] is on record?
A: The LC50 at 48 h was no less than 10 µg/mL.

Q: For `CC1(C)[C@H](CC(Cl)(Cl)Cl)[C@H]1C(=O)OC(C#N)c1cccc(Oc2ccccc2)c1` (relative stereo) [(7) [Trans-isomer]], which LC50 at 48 h [2] is on record?
A: The LC50 at 48 h was 0.5 to 10 µg/mL (≈ 1.1 to 22.1 µM).

Q: Which “Residue (%)” value ([1]; exposure time 3.5 hrs.) does the source give for `CC1(C)C(CC(Cl)(Cl)Cl)C1C(=O)OC(C#N)c1cccc(OC=C(Cl)Cl)c1` (stereo not drawn) [(34) [Mixture]] here?
A: The value was 100%.

Q: What about the “Residue (%)” value ([1]; exposure time 3 days) of the same compound?
A: The value was 88%.

Q: And the “Residue (%)” value ([1]; exposure time 5 days)?
A: The value was 44%.

Q: Which LC50 at 48 h [2] does the source give for `CC1(C)[C@H](C(=O)OC(C(N)=S)c2cccc(Oc3ccccc3)c2)[C@@H]1CC(Cl)(Cl)Cl` (relative stereo) [(27) [Cis-isomer]] here?
A: The LC50 at 48 h was no less than 10 µg/mL.
